Structures are written as SMILES. “Also recorded” adds a separate entry of the source. Like-named read-outs stand apart in the source and are kept apart here.

One assay relates to human platelets. The assay is described as follows: Platelet activation by FACS (PAC-1 antibody binding or surface P-selectin). It is filed as cell-based. As to conditions: for AMPA mediated increase in TRAP induced platelet activation: substance added before AMPA, CNQX 100 μM, JST 1 μM. In general terms: Flow cytometry measures light scatter and fluorescence of single cells or particles in a stream.

Assay [1] deals with AMPA receptor subunits GluR1-4 and kainate receptor subunit GluR5. As to conditions: cited from earlier work.
Assay [2] relates to platelets. Nature of the assay: Intracellular sodium in platelets (SBFI dye, FACS). The format is cell-based, human. As to conditions: for Na+ level / influx in platelets treated with TRAP alone: amiloride 100 μM. Here is the method: (§1) Human platelets were isolated from healthy volunteers who had not taken aspirin or NSAID within 10 d, under a protocol approved by The Johns Hopkins University School of Medicine Institutional Review Board (JCCI). Blood was collected into citrate anticoagulant, platelets were isolated as platelet rich plasma (PRP) by centrifugation at 180 g for 15 min, and then diluted in Tyrode's buffer 1:20 for activation flow cytometry studies. To determine surface GluR1, a Fc Blocking antibody was added to reduce non-specific background antibody binding. Mouse platelets were isolated by collection into heparinized Tyrode's buffer and isolated by centrifugation. Washed platelets were resuspended in Tyrode's. Intracellular ion concentrations were performed after incubating platelets diluted 1:20 in Tyrode's buffer with SBFI for 45 minutes prior to experiments.

In the next assay the test system is megakaryocytes. The assay is described as follows: Whole-cell recordings from freshly isolated megakaryocytes. The format is cell-based, mouse. As for the experimental part: All procedures using animals were approved by the University of Miyazaki Institutional Animal Care and Use Committee. Megakaryocyte preparation was performed as reported previously (43). Briefly, mouse bone marrow was flushed with Na+-rich external solution (Na+-ES, 150 mM NaCl, 1 mM CaCl2, and 10 mM HEPES, pH adjusted to 7.2 using NMDG-OH). Cells were dispersed by repetitive pipetting, washed three times by gentle centrifugation, resuspended in Na+-ES and used within 90 min of isolation.
Whole-cell recordings were obtained from freshly isolated megakaryocytes using an intracellular solution of the following composition: 150 mM CsCl, 1 mM ethylene glycol bis(-aminoethylether)-N,N,N′,N′-tetraacetic acid (EGTA) and 10 mM HEPES. The pH was adjusted to 7.3 using NMDG-OH. The patch-clamp procedures were similar to those described previously (43). Briefly, the experiments were performed in the tight seal whole-cell configuration at room temperature and electrical signals were acquired with an HEKA EPC-7 (Darmstadt, Germany). The pipette resistances ranged between 2 MΩ and 3 MΩ. Current-voltage relationships (I-V curves) were obtained by clamping the cell to different potentials in 30 mV increments (−30, 0 and +30 mV; each of 35 ms duration) from a holding potential of −60 mV. I-V curves obtained prior to the application of the agonists were subtracted from those (typically two) obtained in the presence of the agonists. The current responses were monitored on a chart recorder (WR7700, Graphtec, Tokyo, Japan) through a lowpass filter (200 Hz). Chemicals and reagents used were purchased from either Sigma (St. Louis, Mo.) or Wako Pure Chemicals (Osaka, Japan). […] The perfusion pipette was located within 30 μm of the cell and the puff pressure was adjusted to obtain rapid and effective agonist application (<10 msec).

The subject of assay [3] is platelets. The assay is described as follows: Platelet aggregation (aggregometer) in response to TRAP. The format is cell-based, human. As to conditions: for final aggregation: exogenous addition. As for the experimental part:
as §1, with “The functional relevance of targeting platelet AMPAR signaling was assayed by first measuring aggregation in response to TRAP (10 μM) after incubating platelets with control or CNQX (1-100 μM). […] Human” for “Human”

A short description of assay [4]: Intravital microscopy of FeCl3 induced thrombosis in mesenteric arterioles. As to conditions: for time to total vessel occlusion: FeCl3 injury. The format is in vivo, mouse.
Where [5] appears, read: moderate TRAP (5 μM), platelets pre-incubated with substance.
Setting [6] is: i.v. 20 mins before FeCl3, vs PBS.

Protocol for Tail bleeding time: Mice were treated intravenously (i.v.) with control PBS or CNQX (0.1 mg/kg) and 20 mins later tail bleeding times were determined.
6 week old male mice were anesthetized with ketamine and xylazine (80/13 mg/kg) and injected i.v. with either PBS or CNQX:HBC, 0.1 mg/kg of active CNQX. Twenty minutes later the distal 3 mm of the tail was amputated, immersed in 37° C. saline and the time to visual cessation of bleeding recorded.
Protocol for human platelets: It was next determined whether glutamate is a mediator of platelet activation.
Blood was collected into citrate anticoagulant, platelets were isolated as platelet rich plasma (PRP) by centrifugation at 180 g for 15 min, and then diluted in Tyrode's buffer 1:20 for activation flow cytometry studies. […] Washed platelets were resuspended in Tyrode's.

Turning to `O=C(O)C1CN(CCCP(=O)(O)O)CCN1` (racemic) [CPP, (±)-3-(2-Carboxypiperazin-4-yl)propyl-1-phosphonic acid], the “glutamate mediated increase in TRAP induced platelet activation” value in the assay with human platelets is listed as “does not inhibit”.

For the compound `N[C@@H](Cn1nc(Cl)c(=O)[nH]c1=O)C(=O)O` [5-chloro-6-azawillardiine], the “selectivity for GluR4 over GluR1 and 2” value in assay [1] (at the cost of selectivity for AMPA over kainate receptors) was “some selectivity”.

As for `Cc1onc(O)c1C[C@H](N)C(=O)O` [AMPA, alpha(α)-amino-3-hydroxy-5-methyl-4-isoxazolepropionic acid], the “Na+ influx in response to TRAP after NHE inhibition” value in the assay on platelets [2] (AMPA added after amiloride (100 μM)) is reported as “restores Na+ influx”. In addition, the “platelet activation in response to thromboxane mimetic U46619” value in the assay on human platelets is “increases platelet activation”. Moreover, in the assay on megakaryocytes, the “current on rapid application without cyclothiazide” value was “did not induce a measurable current”, the “inward current following rapid perfusion” value is 8.6+/−4.5 pA and the “reversal potential of the agonist-induced current” value is approximately 0 mV. Moreover, the “platelets aggregated at 1 min post-TRAP” value in the assay with platelets [3] (AMPA 1 mM pre-treatment) is “approximately 75%”. Moreover, the “rate of early aggregation” value with platelets [3] (AMPA 1 mM, TRAP 10 μM) is “increases”. Further, the final aggregation result in the assay with platelets [3] is reported as “no effect”.

Regarding `CC(C)(C)c1o[nH]c(=O)c1CC(N)C(=O)O` (stereo not shown) [ATPA], in the assay on human platelets, the “platelet activation by FACS” value is “increases platelet activation”.

Regarding `N#Cc1cc2[nH]c(=O)c(=O)[nH]c2cc1[N+](=O)[O-]` [CNQX, -cyano-7-nitroquinoxaline-2,3-dione], in the assay with platelets [2] (CNQX 100 μM), the “Na+ concentration in platelets treated with AMPA and TRAP” value was “decreases Na+ concentrations”; the “Na+ level / influx in platelets treated with TRAP alone” value is reported as “decreases Na+ levels”. In addition, the “selectivity for AMPAR subunits versus KA receptor subunits” value in assay [1] is on record as 20-150 fold. Further, the “average tail bleeding time” value in “Tail bleeding time” (0.1 mg/kg i.v., 20 mins before) was “approximately 600 sec”. In addition, the “TRAP induced platelet activation at low antagonist concentration” value in the assay with human platelets (10 μM CNQX) is “significantly decreases platelet activation”. Further, the “TRAP induced platelet activation: P-selectin expression” value in the assay with human platelets (P-selectin by FACS) is “decreases platelet activation”. Further, in the assay with human platelets (setting [5]), the “TRAP induced platelet activation (PAC-1 antibody binding)” value is “inhibits”. The “AMPA mediated increase in TRAP induced platelet activation” value in the assay on human platelets was “inhibits the effects of AMPA”. The “AMPA induced inward current in presence of antagonist” value in the assay with megakaryocytes (CNQX 30 μM) is listed as “blocked”. In assay [4], the “time to total vessel occlusion” value was “prolonged”. In assay [4] (setting [6]), the “time to platelet adhesion (greater than 10 platelets adherent for greater than 10 sec)” value was “prolonged” and the “time to thrombus formation (first stable thrombus greater than 20 μm)” value is listed as “prolonged”. Besides, the “platelet aggregation in response to TRAP” value with platelets [3] (TRAP 10 μM, CNQX 1-100 μM) is “dose dependently reduces platelet aggregation”.

`NCCCNCCCCNCCC(=O)NCCCCCNC(=O)[C@H](CC(N)=O)NC(=O)Cc1ccc(O)cc1O` [JST]: the “AMPA mediated increase in TRAP induced platelet activation” value with human platelets was “no effect”.

On to `C=C(C)[C@H]1CN[C@H](C(=O)O)[C@H]1CC(=O)O` [KA, kainic acid], for which the “TRAP induced platelet activation (PAC-1 antibody binding)” value in the assay with human platelets (setting [5]) is reported as “dose dependently increases”. Further, in the assay on megakaryocytes (100 μM, cyclothiazide in the recording solution), the “inward current following rapid perfusion” value is reported as 3.1+/−0.9 pA. In the assay on megakaryocytes (0.1 or 1 mM, no cyclothiazide), the “current on rapid application without cyclothiazide” value is “did not induce a measurable current”. In addition, the “reversal potential of the agonist-induced current” value in the assay with megakaryocytes (I-V curves, cyclothiazide, no obvious rectification) is reported as approximately 0 mV.

Turning to `N[C@@H](Cn1ccc(=O)n(Cc2ccccc2C(=O)O)c1=O)C(=O)O` [UBP302], in the assay “Tail bleeding time” (mouse, in vivo), the “bleeding time in mice” value is “prolongs bleeding time”. Also, the “platelet activation by FACS” value with human platelets is recorded as “dose dependently reduces platelet activation”. The “time to total vessel occlusion” value in assay [4] is recorded as “prolonged time to total vessel occlusion”.

For the compound `N=C(N)NC(=O)c1nc(Cl)c(N)nc1N` [amiloride], the “Na+ level / influx in platelets treated with TRAP alone” value with platelets [2] (CNQX 100 μM) is given as “reduces Na+ influx”.

Consider `N[C@@H](CCC(=O)O)C(=O)O` [glutamate], for which, in the assay on human platelets, the “ATP mediated platelet activation” value is “not increased”, the “P2Y agonist 2-Me-ADP induced platelet activation” value is “increases”, the “TRAP induced platelet activation (PAC-1 antibody binding)” value is recorded as “significantly increases platelet activation; also recorded: dose dependently increases” and the “TRAP induced platelet activation: P-selectin expression” value is “increases agonist induced platelet activation”. Moreover, in the assay with human platelets, the “collagen induced platelet activation” value is given as “no effect”, the “epinephrine induced platelet activation” value is on record as “significantly increases”, the “increase in platelet activation following low concentration TRAP versus control” value is reported as “approximately two times greater” and the “increase in platelet activation following low concentration thromboxane mimetic versus control” value was “approximately three times greater than control”. In addition, in the assay with human platelets, the “increase of TRAP induced platelet activation compared to control treated platelets” value is listed as “greater than 50%”, the “platelet activation at high TRAP concentration” value is listed as “no effect”, the “platelet activation in response to thromboxane mimetic U46619” value is reported as “dose dependently increases” and the “resting platelet activation (PAC-1 antibody binding)” value is on record as “does not increase”. The final aggregation entry in the assay with platelets [3] was “no effect”.

Values taken from US8603980B2, “Glutamate receptor antagonists and methods of use” (The Johns Hopkins University, priority 2007, dated 2013).
